Results: paper PMC8443589, “Modelling human liver fibrosis in the context of non-alcoholic steatohepatitis using a microphysiological system” (Communications Biology, 2021)

Tests used:
[1] = parameters: method as in PMID 27743502; details: cited from earlier work
[2] = system: liver MPS NASH model (PHH, KC and HSC co-cultures); test: Cue study: albumin production (ELISA); format: cell-based, human
[3] = system: liver MPS NASH model (PHH, KC and HSC co-cultures); test: Cue study: RNAseq transcriptomic profile, enriched pathways; format: cell-based, human; details: GO term enrichment and cluster analysis, 14 days
Method: Fig. 4 Systems biology interrogation of liver MPS NASH model to determine physiologically relevant cues that promote transcriptional changes to mimic advanced NASH disease state. […]
The MPS LC12 plates consists of 12 individual bioreactors that contain pneumatically driven micro-pumps to recirculate cell culture medium through a collagen-coated scaffold. […] Microtissues were then cultured in either HEP-Lean or HEP-Fat medium, both media’s are proprietary to CN Bio Innovations Ltd. The HEP-Fat medium is a derivative of the HEP-LEAN medium and contains a mixture of saturated and unsaturated FFAs, as well as physiologically relevant quantities of insulin and sugars. […]
Prior to RNA-seq integrity and quantity of RNA were assessed by Fragment Analyzer high sensitivity RNA kit (Agilent Technologies, USA). […] Quality and quantity of libraries were assessed by Fragment Analyzer standard sensitivity NGS kit (Agilent Technologies, USA). […] The sample pools were quantified with a Qubit Fluorometer (ThermoFisher Scientific, USA) using the dsDNA HS kit (ThermoFisher Scientific, USA), further diluted and sequenced to >13 M paired reads/sample on NextSeq500 (Illumina, USA) with PE 75 base pair (bp) read length setting.
The sequencing data were demultiplexed using Illumina bcl2fastq2-v2.16. The quality of the reads was assessed using FastQC (www.bioinformatics.babraham.ac.uk/projects/fastqc). […]

Row | Molecule | Plasma protein binding [1] [%] | Albumin production [2] | enriched pathways / gene clusters induced [3]
1 | CC[C@H]1[C@@H](O)[C@@H]2[C@H](CC[C@]3(C)[C@@H]([C@H](C)CCC(=O)O)CC[C@@H]23)[C@@]2(C)CC[C@@H](O)C[C@@H]12 [Obeticholic acid] | >99 |  | 
2 | TGFβ: recombinant TGF beta 1 protein (Abcam), 1 ng/ml cue |  | reduced albumin production | induced a wide range of clusters associated with collagen formation and matrix reorganisation
